The values that follow come from patent publication US20120003151A1, “METHOD FOR EARLY IMAGING OF ATHEROSCLEROSIS” (priority 2009, published 2012).

Series [1] concerns the target T1, folate receptor (Mus musculus, UniProt Q05685). As to the kind of experiment: Radioimaging (gamma scintigraphy, ROI analysis) of EC20-99mTc in ApoE-/- mice. Further details: from tissue; host or cells: atherosclerotic aortas / aorto-cardiac region of living apoE-/- mice (lesion macrophages). It counts as in vivo. The method, then: (§1) EC20-^99mTc was prepared as described (Leamon et al., Bioconjug Chem, 2002, 13(6): 1200-10; incorporated herein by reference). Vials containing lyophilized EC20 were heated at 100° C. for 5 min, after which two mL of a 925 MBq/mL solution of sodium pertechnetate (Cardinal Health) was added and the vial was heated for an additional 15 min. After dilution with the desired volume of saline, mice were injected i.p. with either 400 μL of imaging agent (18.5 MBq, ˜250 nmoles/Kg of EC20) or the same volume of imaging agent supplemented with 100-fold molar excess of free folic acid (to compete for unoccupied folate receptors). Unbound EC20-^99mTc was allowed to clear from the tissues for a period of four hours prior to imaging.

The test system of another series is FR+ macrophages. As to the kind of experiment: EC20-99mTc imaging after macrophage depletion with clodronate liposomes. In kind it is in vivo. As to conditions: apoE-/- mice, 8 weeks Western diet, 4 mg clodronate/dose i.p. daily for 5 days. The method, then:
PBS- and clodronate liposomes were synthesized as described (Buiting et al., J. Immunol. Methods, 1996, 192(1-2): 55-62; incorporated herein by reference). 86 mg egg phosphatidylcholine +8 mg cholesterol were dissolved in 1:1 chloroform:methanol. Solvent was evaporated using a rotoevaporator for 15 min, and the resulting film was rehydrated with PBS or a 0.6 M solution of clodronate (Sigma) in PBS for 2 hours. Resulting multi-lamellar vesicles were sonicated for 3 min and allowed to swell for 2 hours at 25° C. Liposomes were washed 3× with PBS by centrifugation at 100,000×g for 30 min and resuspended in 4 mL PBS. Liposomes were extruded 5× through both a 400 nm and 200 nm pore-size polycarbonate filter and stored at 4° C. until use. The resulting liposomes consisted of 7:1.3 molar ratio egg phosphatidylcholine:cholesterol, respectively. The efficiency of clodronate entrapment using this method was 7.8%.
For systemic elimination of macrophages, apoE−/− mice were fed a Western diet for a period of 8 weeks, after which 200 μL of PBS- or clodronate-liposomes (4 mg clodronate/dose) were injected i.p. daily for 5 days. After treatment, mice were injected i.p. with EC20-^99mTc and imaged, as described above.

The target in series [2] is T1, folate receptor. Kind of series: Autoradiography and histology of aortas after EC20-99mTc injection. It counts as in vivo, mice. Also noted: from tissue; host or cells: atherosclerotic aortas / aorto-cardiac region of living apoE-/- mice (lesion macrophages).
Protocol: In order to image areas of accumulation of EC20-^99mTc in atherosclerotic aortas, apoE−/− mice on a normal or Western diet were injected with EC20-^99mTc, euthanized, and thoracic aortas were excised. […] For cross sections, aortic roots and arches were cut and embedded in Tissue-Tek® O.C.T.™ mounting medium and frozen in liquid nitrogen. Serial sections were cut with a Leica CM1800 cryostat and placed on polylysine coated microscope slides (Thermo Scientific). Either whole aortas or aortic arch cross sections (40 μm) were exposed to a phosphor screen for 18 hours at 4° C. The phosphor screen was read using a Typhoon phosphorimager (GE Healthcare) at a resolution of 50 microns. Aortic tissue sections (10 m thick) adjacent to those used for autoradiography were also used for histology. H&E staining was performed to visualize lesion morphology. H&E staining of the sections was performed as follows.
The slides were fixed for 10 minutes in zinc-buffered formalin. The slides were washed with distilled water. The slides were immersed in Gills-3 hematoxylin for 5 minutes. The slides were rinsed in distilled water and dipped twice in acidic ethanol. The slides were rinsed for 30 seconds with distilled water and for 3 minutes in tap water. The slides were transferred to alcoholic Eosin Y for 20 seconds. The slides were rinsed with water and dehydrated in 2 changes of 95% ethanol, 2 changes of 100% ethanol, and 2 changes of xylenes (3 minutes per change). Coverslips were mounted using Permount™ mounting medium and allowed to dry overnight. Slides were visualized with a light microscope (4× objective). In some cases, the percentage of lumen occlusion was analyzed using ImageJ software (National Institutes of Health).
Staining with the macrophage-specific monoclonal antibody (Mac-3/CD107b; eBioscience Inc.) was performed as follows. Aortic arch sections were fixed with zinc-buffered formalin for 10 min, and endogenous biotin and peroxidase activity were blocked. Sections were incubated with anti-mouse CD107b antibody (1:50 dilution) for 1 h, and after washing, incubated with goat anti-rat biotinylated antibody (KPL Protein Research Products) at a 1:500 dilution for 30 min. After washing, streptavidin-HRP (BD Pharmingen) was added for an additional 30 min. Slides were developed with diaminobenzidine substrate (BD Pharmingen) according to manufacturer's instructions. Negative control consisted of slides developed in the absence of primary antibody. An Olympus BH-2 microscope coupled with a CCD camera was used to obtain light photomicrographs. […]
In series [3] the target is T1, folate receptor. Here is the method:
as §1
To analyze the accumulation of EC20-^99mTc in mouse aortas and heart tissues, mice were euthanized and thoracic aortas excised. Radioactivities were counted for 2 min using a gamma-counter (Packard). Results are reported as % ID/g tissue.
In order to assess whether EC20-^99mTc is in fact targeting these regions of enhanced atherosclerosis, thoracic aortas and hearts were dissected, and accumulation of EC20-^99mTc in the resected tissues was quantitated by gamma counting.

T1 sequence (Q05685 21-227): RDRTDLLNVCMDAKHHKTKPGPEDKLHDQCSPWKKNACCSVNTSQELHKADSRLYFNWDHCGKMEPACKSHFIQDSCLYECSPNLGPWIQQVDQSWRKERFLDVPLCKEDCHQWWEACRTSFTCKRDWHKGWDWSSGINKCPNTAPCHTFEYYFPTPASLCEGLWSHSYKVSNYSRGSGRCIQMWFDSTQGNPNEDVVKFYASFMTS

As to `Nc1nc2ncc(CNc3ccc(C(=O)N[C@H](CCC(=O)NC[C@H](N)C(=O)N[C@@H](CC(=O)O)C(=O)N[C@@H](CS)C(=O)O)C(=O)O)cc3)nc2c(=O)[nH]1` [EC20-^99mTc, metal not drawn], the “signal intensity after pre-injection of 100-fold excess free folic acid” value at folate receptor [1] (apoE-/- mice on Western diet, 25 weeks, folic acid competition) is reported as “reduced to near background levels”. Moreover, the “average increase in EC20-99mTc signal intensity in the aorto-cardiac region, Western diet compared to normal rodent chow” value on folate receptor [1] (apoE-/- mice, 25 weeks on diet, i.p., imaged after 4 h clearance) is about 70%. Further, in the series on FR+ macrophages, the “reduction of EC20-99mTc uptake by clodronate-liposome treatment relative to PBS-containing liposomes” value worked out at 65%. The “radioactivity in the aortic root and arch with 100-fold greater dose of free folic acid” value at folate receptor [2] (apoE-/- mice on Western diet, autoradiography) was “significantly reduced”. The “correspondence of areas of high macrophage content and lesion formation with loci of elevated 99mTc emission” value at folate receptor [2] (apoE-/- mice, 25 weeks Western chow, serial sections: H&E, Mac-3, autoradiography) is recorded as “invariably corresponded”. For the same compound, at folate receptor [2] (apoE-/- mice, whole aortas, phosphorimager), the “uptake in the aortic root and arch by autoradiography, Western diet versus normal diet” value is “significantly greater uptake”. The “decrease of EC20-99mTc retention in the aortas by competition with excess folic acid” value at folate receptor [3] (apoE-/- mice on Western diet, compared to non-competed controls) was 41%. The “accumulation in the aortas, higher on Western chow than normal diet” value at folate receptor [3] (apoE-/- mice, 25 weeks on diet, gamma counting) is given as about 120%. The “EC20-99mTc uptake in hearts relative to aortas” value in the series with folate receptor [3] (mouse, in vivo) is “threefold lower”.
`Nc1nc2ncc(CNc3ccc(C(=O)N[C@H](CCC(=O)NC[C@H](N)C(=O)N[C@@H](CC(=O)O)C(=O)N[C@@H](CS)C(=O)O)C(=O)O)cc3)nc2c(=O)[nH]1` [EC20]: the “detectability of EC20 uptake in small, early, active atherosclerotic plaques” value on folate receptor [2] (ApoE-/- mice, Western Diet 0, 2, 12 or 26 weeks, H&E plaque size) is “detectable”.
